Consider two molecules from patent publication US12552806B2, “Androgen receptor regulation by small molecule enantiomers” (University of Southern California, priority 2020, dated 2026).

One data set deals with AR. As to the kind of experiment: ARE-luciferase assay in cells expressing ARE-luciferase (enantiomer pairs). The class given is cell-based. To be noted: 10 μM mixture + 1 nM R1881, 24 h. An excerpt:
(§1) To test for corresponding transcriptional activation, we performed assays in cells expressing ARE-luciferase. […] Next, we examined gene expression in VCaP cells, a hormone-responsive but independent model of CRPC highly expressing AR.
(§2) PC3 and VCaP cell lines were obtained from ATCC and cultured as recommended. Generation and culture of PC3 GFP-AR cells were described previously (14). ARE-luciferase cells were generated using Cignal Lenti AR Reporter (Qiagen). Cell lines were authenticated using NIST-approved short tandem repeat DNA profiling and tested negative for mycoplasma. Drug treatments were conducted after overnight culture in phenol red-free media supplemented with charcoal:dextran stripped FBS.
(§3) Luminometer Assays. For ARE-luciferase, luciferase substrate was added to lysed cells after 24-h treatment. For viability, cells were lysed with CellTiter-Glo 3D Cell Viability Assay (Promega) after 6 d of treatment. Measurements were performed in 96-well plates (Corning) using a GloMax 96 Microplate Luminometer (Promega).

The target in the next data set is T1, AR T878A (Homo sapiens, UniProt P10275, T878A).
T1 construct: LNCaP cells expressing AR T878A; endogenous in cells; host or cells: LNCaP-luc (LNCaP stably carrying the Cignal Lenti AR Reporter)
T1 sequence (P10275 1-920 T878A): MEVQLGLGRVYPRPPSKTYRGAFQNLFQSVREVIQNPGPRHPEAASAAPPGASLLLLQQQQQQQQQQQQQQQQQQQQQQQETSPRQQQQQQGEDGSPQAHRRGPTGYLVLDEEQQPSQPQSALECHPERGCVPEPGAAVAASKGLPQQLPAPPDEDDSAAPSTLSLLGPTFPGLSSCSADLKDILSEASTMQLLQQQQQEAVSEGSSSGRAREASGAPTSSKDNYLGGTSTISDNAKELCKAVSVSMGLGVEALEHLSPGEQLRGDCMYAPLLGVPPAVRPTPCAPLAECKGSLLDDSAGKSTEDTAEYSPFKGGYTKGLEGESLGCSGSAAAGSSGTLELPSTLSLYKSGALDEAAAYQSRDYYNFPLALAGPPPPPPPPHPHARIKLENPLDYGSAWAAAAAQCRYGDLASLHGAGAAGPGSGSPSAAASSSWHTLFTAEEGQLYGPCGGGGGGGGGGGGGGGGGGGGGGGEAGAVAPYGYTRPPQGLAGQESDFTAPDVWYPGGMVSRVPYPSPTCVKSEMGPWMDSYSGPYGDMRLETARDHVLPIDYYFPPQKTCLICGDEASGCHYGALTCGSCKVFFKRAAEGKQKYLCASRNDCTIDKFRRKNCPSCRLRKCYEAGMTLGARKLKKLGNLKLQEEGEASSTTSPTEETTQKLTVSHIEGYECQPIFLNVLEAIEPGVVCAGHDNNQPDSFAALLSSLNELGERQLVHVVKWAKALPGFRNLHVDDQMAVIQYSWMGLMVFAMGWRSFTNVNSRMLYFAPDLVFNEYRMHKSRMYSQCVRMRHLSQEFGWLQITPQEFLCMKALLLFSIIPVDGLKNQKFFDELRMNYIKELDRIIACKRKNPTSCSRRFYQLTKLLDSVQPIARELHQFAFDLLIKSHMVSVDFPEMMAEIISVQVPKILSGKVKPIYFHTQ
As to the kind of experiment: cell-based. The class given is cell-based. An excerpt: We generated a LNCaP cell line stably expressing luciferase controlled by androgen response elements (ARE-luciferase).
Cell Culture and Treatments. The LNCaP cell line were obtained from ATCC, cultured in RPMI1640 (Corning) supplemented with 10% heat-inactivated GemCell bovine serum (Gemini Bio-Products) and Penicillin-Streptomycin (Gemini Bio-Products). Cell lines stably expressing ARE-luciferase (LNCaP-luc) was generated using Cignal Lenti AR Reporter (Qiagen) and was continuously cultured with 500 ng/mL Puromycin (Gibco) for positive selection. Cells were maintained at 37° C. in a humidified incubator with 5% carbon dioxide. All cell lines were authenticated using NIST approved short tandem repeat (STR) DNA profiling performed by the University of Arizona Genetics Core and routinely tested negative for mycoplasma.
Luciferase assay. LNCaP-luc cells were seeded in clear flat bottom white polystyrene 96-well plates (Corning) at a density of 12,000 cells/well. […] Dose-response curves were fit using the delta method and t-distribution (n=1). Compounds are tested up to 10 μM.

The subject of another data set is LNCaP cells. As to the kind of experiment: LNCaP cell viability assay (CellTiter-Glo). The class given is cell-based. To be noted: 1 and 10 μM drug + 60 pM R1881, 5 days. As to the method:
LNCaP cell viability assay. Cells were seeded into 96-well fibronectin coated (1 ug/cm^2) plates (CellCarrier, PerkinElmer) at a density of 5,000 cells/well. […] Drug-treated cells were lysed with CellTiter-Glo 3D Cell Viability Assay (Promega) and transferred to white 96-well plates (Corning). Luminescence was measured utilizing GloMax 96 Microplate Luminometer (Promega). Analysis was conducted in the R statistical environment (v 3.6.0). […] Visualizations were facilitated by the ggplot2 package (v3.2.1), with standard error (S.E.) shown where appropriate.
On the technique in general: In ATP-based viability assays light output follows the ATP content of the culture.

The next data set has as its system VCaP cells. As to the kind of experiment: VCaP viability assay (CellTiter-Glo). The class given is cell-based. On the procedure:
as §2, §3

The nature of data set [1]: Microsome stability assay. The conditions noted are these: for toxic metabolite BMS-501949 detected in LCMS: 8 h incubation, o-fluoro-BMS-501949 for EITM-1707. The class given is in vitro ADME, human. As to the method: Microsome stability assays. In vitro metabolism was determined as described previously. Specifically, to measure metabolism of parent compounds, the higher throughput protocol was applied, in which 0.5 mg/ml pooled human liver microsomes (Sigma) were mixed with 1 μM drugs and phosphate buffer (0.1 M, pH 7.4) in 96-well plates. Enzymatic reactions were started by adding 1 mM NADPH (Sigma Aldrich) followed by incubation at 37° C. Fractions were quenched by transfer to ice-cold acetonitrile after the indicated incubation times. Samples were analyzed using liquid chromatography-mass spectrometry (LC/MS-MS). Rates of intrinsic clearance were determined from the amount of the parent compound consumed per min per mg of microsomal protein as described previously. To analyze accumulating metabolites, the basic protocol was used, and microsomes were incubated with 10 μM drugs for 8 h.

For data set [2], the system named is AR-regulated genes in VCaP cells. As to the kind of experiment: RT-qPCR array of AR target genes in VCaP cells. The class given is cell-based. To be noted: 82 AR target genes, vs NTC and DHT. As to the method:
as §1
RT-qPCR Array. RNA was isolated using the Illustra RNAspin Mini Kit (GE Healthcare). RNA was transcribed to cDNA using RT2 First Strand Kit (Qiagen). RT-qPCR was performed using Biorad CFX Connect on a RT2 Profiler PCR Array Human Androgen Receptor Signaling Targets (Qiagen).
A general note: Quantitative PCR measures a nucleic acid by following its amplification.

“Also recorded” adds a separate entry of the source.

On to `C[C@@]12O[C@@](C)(C[C@@H]1NC(=O)c1cc[nH]n1)[C@@H]1C(=O)N(c3ccc(C#N)c(C(F)(F)F)c3)C(=O)[C@@H]12` [(S)-EITM-1702, N-((3aS,4S,5S,7S,7aR)-2-(4-cyano-3-(trifluoromethyl)phenyl)-4,7-dimethyl-1,3-dioxooctahydro-1H-4,7-epoxyisoindol-5-yl)-1H-pyrazole-3-carboxamide], for which, in the data set on AR (95% CI (2.1%, 2.9%)), the “(S)-enantiomer contamination that halved the drug effect, ARE-luciferase” value turned out to be 2.5%. Further, in the data set with AR (95% CI (6.0%, 12.0%)), the “(S)-enantiomer contamination that canceled out the antagonist effect, ARE-luciferase” value was found to be 9%.

With `CC(O)c1cc(C(=O)N[C@@H]2C[C@@]3(C)O[C@]2(C)[C@@H]2C(=O)N(c4ccc(C#N)c(C(F)(F)F)c4F)C(=O)[C@@H]23)n[nH]1` (stereo partly drawn) [EITM-1707, N-((3aR,4R,5R,7R,7aS)-2-(4-cyano-2-fluoro-3-(trifluoromethyl)phenyl)-4,7-dimethyl-1,3-dioxooctahydro-1H-4,7-epoxyisoindol-5-yl)-5-(1-hydroxyethyl)-1H-pyrazole carboxamide], at AR T878A, the “AR agonism / antagonism in LNCaP ARE-luciferase, in words” value was “pure antagonists” and the EC50 – broadly, the concentration giving half of the maximal effect – was 940 nM. Moreover, the Emax (commonly the size of the effect at its maximum, as opposed to the concentration needed) at AR T878A (LNCaP) was 13%. Further, the “LNCaP proliferation / viable cells, in words” value in the data set with LNCaP cells is “inhibit LNCaP proliferation; also recorded: inhibited the growth of LNCaP prostate cancer cells”. The “R1881-induced growth, in words” value in the data set with VCaP cells (10 μM drug + 1 nM R1881, 6-d treatment) was “visibly suppressed R1881-induced growth”. For the same molecule, the IC50 (commonly the concentration that gives 50% inhibition) in the data set with VCaP cells (Homo sapiens, VCaP) came to 410 nM. The “toxic metabolite BMS-501949 detected in LCMS” value in data set [1] (10 μM drug) is on record as “not detected”. Also, the “toxic metabolite BMS-501949 detected in LCMS” value in data set [1] (10 μM drug, listed as (R)-EITM-1707) is reported as “no”. Besides, in data set [1] (Unnamed metabolite (predicted active) for EITM compounds, BMS-570511 for BMS-641988, 10 μM drug, 8 h), the “active metabolite detected in LCMS” value is listed as “yes”. Moreover, the half-life at 1 μM in data set [1] (human, pooled human liver microsomes, pH 7.4, liver microsomes, 1 μM drug, read-out: T½) was found to be 47.3 min. The microsomal CLint at 1 μM in data set [1] (human, pooled human liver microsomes, pH 7.4, liver microsomes, read-out: rate of intrinsic clearance) turned out to be 10.3 µL/min/mg. In addition, in data set [2], the “AR-dependent gene expression, in words” value is recorded as “down-regulated AR-dependent gene expression”.
